From patent US10329289B2, “6,7-dihydro-5H-pyrrolo[3,4-B]pyridin-5-one allosteric modulators of the M4 muscarinic acetylcholine receptor” (Merck Sharp & Dohme Corp., priority 2015, dated 2019) come the findings set out here.

SMILES strings stand for the structures.

This assay addresses T1, human M4 muscarinic acetylcholine receptor (Homo sapiens, UniProt P08173).
T1 construct: expressed in transfected cells; host or cells: CHO-K1
T1 sequence (P08173 1-479): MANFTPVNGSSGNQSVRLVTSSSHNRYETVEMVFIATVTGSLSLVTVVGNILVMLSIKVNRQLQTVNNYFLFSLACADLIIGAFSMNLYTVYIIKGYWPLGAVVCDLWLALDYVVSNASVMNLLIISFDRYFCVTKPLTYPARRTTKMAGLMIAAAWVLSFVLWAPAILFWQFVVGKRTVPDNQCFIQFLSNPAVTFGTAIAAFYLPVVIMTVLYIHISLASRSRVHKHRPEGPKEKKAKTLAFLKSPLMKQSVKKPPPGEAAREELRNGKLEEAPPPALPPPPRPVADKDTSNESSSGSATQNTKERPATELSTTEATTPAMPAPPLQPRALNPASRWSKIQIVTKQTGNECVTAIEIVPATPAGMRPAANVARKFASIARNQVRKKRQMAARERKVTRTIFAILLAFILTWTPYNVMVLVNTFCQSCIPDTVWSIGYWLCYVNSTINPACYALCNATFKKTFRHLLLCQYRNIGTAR
The assay can be described thus: human FLIPR-based M4 PAM assay (Ca2+ mobilization, CHO-K1 cells with human M4 receptor and Gαqi5). In kind it is cell-based. The note with it: acetylcholine at 20% of maximum response, read-out: M4 PAM IP. An outline of the steps:
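CHO-K1 cells stably expressing human M4 and chimeric Gαqi5 were dye-loaded ~1 h at 37 °C and read for Ca2+ fluorescence. Compound followed by acetylcholine at an EC20 (sometimes an EC70 third addition); inflection point from a 4-parameter logistic fit.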
Background: A change in cytosolic calcium serves as a functional read-out for many receptors and channels.
As to `Cc1nc2cc(OC3CCN(c4nc5c(cc4C)C(=O)NC5)CC3)ccc2[nH]1` [Example 149, 3-methyl-2-(4-((2-methyl-1H-benzo[d]imidazol-5-yl)oxy)piperidin-1-yl)-6,7-dihydro-5H-pyrrolo[3,4-b]pyridin-5-one], the EC50 stood at 1000 nM.

Turning to `COc1ccc(O[C@H]2CCN(c3nc4c(cc3C)C(=O)NC4)C[C@@H]2C)cn1` (single isomer, unassigned) [Example 2B], the EC50 stood at 734 nM.

In the case of `Cc1cc2c(nc1N1CCC(Oc3cc(F)c4[nH]ncc4c3)CC1)CNC2=O` [Example 317, 2-(4-((7-Fluoro-1H-indazol-5-yl)ox)piperidin-1-yl)-3-methyl-6,7-dihydro-5H-pyrrolo[3,4-b]pyridin-5-one], the EC50 worked out at 125 nM.

`Cc1cc2c(nc1N1CCC(Oc3ccc4c(c3)CCOC4)CC1)[C@@H](CO)N(C)C2=O` [Example 349A, (S)-7-(hydroxymethyl)-2-(4-(isochroman-6-yloxy)piperidin-1-yl)-3,6-dimethyl-6,7-dihydro-5H-pyrrolo[3,4-b]pyridin-5-one]: the EC50 worked out at 22 nM.

For `Cc1cc2c(nc1N1CCC(Oc3ccc4c(c3)CC[C@@H]4CCO)CC1)CNC2=O` [Example 157A, (R)-2-(4-((1-(2-hydroxyethyl)-2,3-dihydro-1H-inden-5-yl)oxy)piperidin-1-yl)-3-methyl-6,7-dihydro-5H-pyrrolo[3,4-b]pyridin-5-one], the EC50 was determined as 93 nM.

With `Cc1c(N2CCC(Oc3ccc4c(c3)COCC4)CC2)nc2c(c1C)C(=O)N(C)[C@H]2CO` (single isomer, unassigned) [Example 337D], the EC50 came to 613 nM.

As for `Cc1cc2c(nc1N1CCC(OCC3(C)CC3)CC1)CNC2=O` [Example 176, 3-methyl-2-(4-((1-methylcyclopropyl)meth-oxy)piperidin-1-yl)-6,7-dihydro-5H-pyrrolo[3,4-b]pyridin-5-one], the EC50 came to 39 nM.

`COc1ccc(OC2CCN(c3nc4c(cc3C)C(=O)N(C)[C@H]4C(C)(C)O)CC2)cn1` [Example 323A, (R)-7-(2-Hydroxypropan-2-yl)-2-(4-((6-methoxpyridin-3-yl)oxy)piperidin-1-yl)-3,6-dimethyl-6,7-dihydro-5H-pyrrolo[3,4-b]pyridin-5-one]: the EC50 amounted to 261 nM.

As to `CCN1Cc2nc(N3CCC(Oc4ccc(OC)nc4)CC3)c(C)cc2C1=O` [Example 232, 6-Ethyl-2-(4-((6-methoxypyridin-3-yl)oxy)piperidin-1-yl)-3-methyl-6,7-dihydro-5H-pyrrolo[3,4-b]pyridin-5-one], the EC50 came to 81 nM.

With `Cc1cc2c(nc1N1CCC(Oc3ccc4c(c3)OCC4)CC1)[C@@H](CO)N(C)C2=O` [Example 355, (S)-2-(4-((2,3-dihydrobenzofuran-6-yl)oxy)piperidin-1-yl)-7-(hydroxymethyl)-3,6-dimethyl-6,7-dihydro-5H-pyrrolo[3,4-b]pyridin-5-one], the EC50 was 16 nM.

In the case of `Cc1ccc(OC2CCN(c3nc4c(cc3C)C(=O)NC4)CC2)cc1Cl` [Example 82, 2-(4-(3-chloro-4-methylphenoxy)piperidin-1-yl)-3-methyl-6,7-dihydro-5H-pyrrolo[3,4-b]pyridin-5-one], the EC50 turned out to be 121 nM.

As to `COC(=O)CN1Cc2nc(N3CCC(Oc4ccc(OC)nc4)CC3)c(C)cc2C1=O` [Example 260, methyl 2-(2-(4-((6-methoxypyridin-3-yl)oxy)piperidin-1-yl)-3-methyl-5-oxo-5,7-dihydro-6H-pyrrolo[3,4-b]pyridin-6-yl)acetate], the EC50 worked out at 141 nM.

Regarding `Cc1cc2c(nc1N1CCC(Oc3ccc(F)nc3)CC1)CNC2=O` [Example 91, 2-(4-((6-fluoropyridin-3-yl)oxy)piperidin-1-yl)-3-methyl-6,7-dihydro-5H-pyrrolo[3,4-b]pyridin-5-one], the EC50 was 60 nM.

`Cc1cc2c(nc1N1CCC(OC[C@@]3(C)C[C@@H]3F)CC1)CNC2=O` (single isomer, unassigned) [Example 160D]: the EC50 stood at 37 nM.

For `Cc1cc2c(nc1N1CCC(Oc3ccc4c(cnn4C)c3)CC1)CN(CO)C2=O` [Example 272, 6-(Hydroxymethyl)-3-methyl-2-(4-((1-methyl-1H-indazol-5-yl)oxy)piperidin-1-yl)-6,7-dihydro-5H-pyrrolo[3,4-b]pyridin-5-one], the EC50 was found to be 395 nM.

With `Cc1cc2c(nc1N1CC[C@@H](Oc3ccc4c(c3)CCOC4)[C@@H](F)C1)CNC2=O` [Example 178A, 2-((3S,4R)-3-fluoro-4-(isochroman-6-yloxy)piperidin-1-yl)-3-methyl-6,7-dihydro-5H-pyrrolo[3,4-b]pyridin-5-one], the EC50 is 18 nM.

Consider `Cc1cc2c(nc1N1CCC(Oc3ccc4c(c3)OCCN4)CC1)CNC2=O` [Example 148, 2-(4-((3,4-dihydro-2H-benzo[b][1,4]oxazin-7-yl)oxy)piperidin-1-yl)-3-methyl-6,7-dihydro-5H-pyrrolo[3,4-b]pyridin-5-one], for which the EC50 amounted to 31 nM.

On to `Cc1cc2c(nc1N1CCC(Oc3ccc(N)nc3)CC1)CNC2=O` [Example 104, 2-(4-((6-aminopyridin-3-yl)oxy)piperidin-1-yl)-3-methyl-6,7-dihydro-5H-pyrrolo[3,4-b]pyridin-5-one], for which the EC50 was determined as 60 nM.

`Cc1cc2c(nc1N1CCC(Oc3ccc4c(cnn4C)c3)CC1)CNC2=O` [Example 4, 3-methyl-2-(4-((1-methyl-1H-indazol-5-yl)oxy)piperidin-1-yl)-6,7-dihydro-5H-pyrrolo[3,4-b]pyridin-5-one]: the EC50 was found to be 49 nM.

On to `Cc1cc2c(nc1N1CCC(OCC3(F)CC3)CC1)CNC2=O` [Example 64A, 2-(4-((1-fluorocyclopropyl)methoxy)piperidin-1-yl)-3-methyl-6,7-dihydro-5H-pyrrolo[3,4-b]pyridin-5-one], for which the EC50 was found to be 192 nM.

Regarding `COc1ccc(OC2CCN(c3nc4c(cc3C)C(=O)NC4(C)C)CC2)cn1` [Example 288, 2-(4-((6-Methoxypyridin-3-yl)ox)piperidin-1-yl)-3,7,7-trimethyl-6,7-dihydro-5H-pyrrolo[3,4-b]pyridin-5-one], the EC50 amounted to 1790 nM.

Turning to `Cc1cc2c(nc1N1CCC(Oc3ccc(F)cc3)CC1)CN(C)C2=O` [Example 253, 2-(4-(4-fluorophenoxy)piperidin-1-yl)-3,6-dimethyl-6,7-dihydro-5H-pyrrolo[3,4-b]pyridin-5-one], the EC50 was determined as 49 nM.

`CCOc1ccc(OC2CCN(c3nc4c(cc3C)C(=O)N(C)[C@H]4CO)CC2)cn1` [Example 285, (R)-2-(4-((6-ethoxypyridin-3-yl)oxy)piperidin-1-yl)-7-(hydroxymethyl)-3,6-dimethyl-6,7-dihydro-5H-pyrrolo[3,4-b]pyridin-5-one]: the EC50 was 8620 nM.

On to `CCc1cc2c(nc1N1CCC(OCC3CC3)CC1)CNC2=O` [Example 176A, 2-(4-(cyclopropylmethoxy)piperidin-1-yl)-3-ethyl-6,7-dihydro-5H-pyrrolo[3,4-b]pyridin-5-one], for which the EC50 turned out to be 264 nM.

As for `Cc1cc2c(nc1N1CC[C@@H](Oc3ccc4c(c3)COC4)[C@H](F)C1)[C@H](CO)N(C)C2=O` [Example 279A, (R)-2-((3R,4R)-4-((1,3-dihydro-2-benzofuran-5-yl)oxy)-3-fluoropiperidin-1-yl)-7-(hydroxymethyl)-3,6-dimethyl-6,7-dihydro-5H-pyrrolo[3,4-b]pyridin-5-one], the EC50 turned out to be 909 nM.

Turning to `CCOc1ccc(OC2CCN(c3nc4c(cc3C)C(=O)N(C)[C@@H]4CO)CC2)cn1` [Example 286, (S)-2-(4-((6-ethoxypyridin-3-yl)oxy)piperidin-1-yl)-7-(hydroxymethyl)-3,6-dimethyl-6,7-dihydro-5H-pyrrolo[3,4-b]pyridin-5-one], the EC50 stood at 38 nM.

`CCc1cc2c(nc1N1CCC(Oc3ccc4c(c3)C[C@@H](O)C4)CC1)CNC2=O` [Example 166B, (S)-3-ethyl-2-(4-((2-hydroxy-2,3-dihydro-1H-inden-5-yl)oxy)piperidin-1-yl)-6,7-dihydro-5H-pyrrolo[3,4-b]pyridin-5-one]: the EC50 was found to be 57 nM.

As for `Cc1cc2c(nc1N1CCC(Oc3ccc(F)cc3)CC1)CNC2=O` [Example 72, 2-(4-(4-fluorophenoxy)piperidin-1-yl)-3-methyl-6,7-dihydro-5H-pyrrolo[3,4-b]pyridin-5-one], the EC50 was 30 nM.

`CCc1cc2c(nc1N1CCC(Oc3cncc(C)c3)CC1)CNC2=O` [Example 173A, 3-ethyl-2-(4-((5-methylpyridin-3-yl)oxy)piperidin-1-yl)-6,7-dihydro-5H-pyrrolo[3,4-b]pyridin-5-one]: the EC50 came to 207 nM.

For `Cc1cc2c(nc1N1CCC(Oc3ccc4c(c3)OCCO4)CC1)CNC2=O` [Example 132, 2-(4-((2,3-dihydrobenzo[b][1,4]dioxin-6-yl)oxy)piperidin-1-yl)-3-methyl-6,7-dihydro-5H-pyrrolo[3,4-b]pyridin-5-one], the EC50 amounted to 30 nM.

Regarding `C=Cc1cc2c(nc1N1CCC(Oc3ccc(OC)nc3)CC1)CNC2=O` [Example 222, 2-(4-((6-methoxypyridin-3-yl)oxy)piperidin-1-yl)-3-vinyl-6,7-dihydro-5H-pyrrolo[3,4-b]pyridin-5-one], the EC50 was determined as 50 nM.

Regarding `Cc1nc2ccc(O[C@@H]3CCN(c4nc5c(cc4C)C(=O)NC5)C[C@@H]3F)cc2o1` [Example 162, 2-((3S,4R)-3-fluoro-4-((2-methylbenzo[d]oxazol-6-yl)oxy)piperidin-1-yl)-3-methyl-6,7-dihydro-5H-pyrrolo[3,4-b]pyridin-5-one], the EC50 was found to be 51 nM.
